Data set [1] deals with primary and metastatic melanoma cell lines. Put plainly: Trypan blue viable cell counting in relation to CD271 levels by flow cytometry. The data set is classed as cell-based, human. The note with it: five primary and metastatic melanoma cell lines. Here is the method:
FIG. 4. The peptide-induced cell death correlates with CD271 expression levels in melanoma cell lines. Five primary and metastatic melanoma cell lines were cultured and viability measured by Trypan blue staining solution. Flow cytometry was used to evaluate the expression level of CD271 receptor. Because CD271 mediates apoptosis in many cell systems, we analysed the effect of XYZ in melanoma cell lines in relation to the levels of the receptor. After treatment, melanoma cell lines were harvested and incubated with Trypan Blue staining solution or incubated with CD271 antibody for flow cytometer analysis.
For orientation: Flow cytometry measures light scatter and fluorescence of single cells or particles in a stream.

Data set [2] relates to WM266-4 melanoma cell line. Put plainly: Cell death analysis by flow cytometry (propidium iodide, sub-G1). Conditions: WM266-4, 24 h and 48 h, versus diluent. The format is cell-based, human. Here is the method:
(§1) FIG. 5. […] WM266-4 melanoma cell line was cultured and the rate of apoptosis measured after treatment with the peptide (XYZ) as compared to diluent at different time points by flow cytometry (A) counting % of cells in sub-G1 with propidium iodide staining or (B) counting % of Annexin positive cells staining. Student's t-test was used for comparison of the means
WM266-4 cell line was treated with the peptide (XYZ) or diluent at different time points. After 24 and 48 h, cells were trypsinised and resuspended in hypotonic fluorochrome solution: 50 μg/ml propidium iodide containing 0.1% sodium citrate and 0.5% Triton X-100 (Sigma Aldrich, Milano, Italy). After 15 min, cells were analyzed using an Epics XL flow cytometer (Coulter Electronics Inc., Hialeah, Fla., USA). Apoptosis was detected by evaluating the reduced fluorescence of the DNA-binding dye PI in the apoptotic nuclei.
(§2) In particular, XYZ triggers melanoma apoptosis, a most well-known type of programmed cell death in culture. […] In details, melanoma cell lines, gently were trypsinised and washed once with serum-containing media before incubation with annexin V-FITC or with propidium iodide. 24 h and 48 h later, FITC signal detector or sub G0/G1 peak for annexin or PI staining respectively, were observed by flow cytometry.

The subject of data set [3] is WM266-4 melanoma cell line. Put plainly: Annexin V staining by flow cytometry. The data set is classed as cell-based, human. Conditions: WM266-4, 24 h and 48 h, versus diluent. Here is the method: as §1
WM266-4 cell line was treated with the peptide (XYZ) or diluent at different time points. After 24 and 48 h, cells were trypsinised, collected by centrifugation and resuspended in 500 μL of binding buffer containing annexin V-FITC and propidium iodide (PI). After incubation at room temperature for 5 min in the dark, annexin V-FITC binding was analyzed by flow cytometry using FITC signal detector and PI staining by the phycoerythrin emission signal detector.
as §2

For data set [4], the system named is WM115 CD271 silenced (siRNA) melanoma cell line. Put plainly: MTT assay in CD271-silenced (siRNA) cells. The data set is classed as cell-based, human. The note with it: WM115 transfected with CD271 siRNA. An excerpt:
FIG. 6. The peptide reduces melanoma cell viability through CD271. WM115 melanoma cell line was transiently transfected with CD271 siRNA, as shwon by western blotting. MTT assay was used to measure cell viability after treatment with the peptide (XYZ) or the diluent in siRNA and scramble cells. SKme128 melanoma cell line was transiently transfected with CD271 mRNA, as shown by western blotting. MTT assay was used to measure cell viability after treatment with the peptide (XYZ) or the diluent in siRNA and scramble cells. Student's t-test was used for comparison of the means.
5×10^3 cells/well were seeded in 96-well culture plates. At different time points, cells were incubated with 0.5% MTT (3-(4,5-dimethylthiazol-2-yl)-2,5-diphenyltetrazolium bromide) for 4 h at 37° C. and then dissolved with 100 μl Isopropanol with 0.04N HCl. The plate was read at 560 nm with a reference filter of 650 nm. Results are expressed as viability percentage, as compared to control.
Melanoma cells were plated in 2D for 24 h in antibiotic free medium. WM115 cell line was then transfected with scrambled or CD271 siRNA (50 nM and 100 nM, respectively) (Dharmacon Inc, Lafayette, Colo., USA) in antibiotic/FBS free medium supplemented with 0.1% BSA and 48 h later cells were seeded for MTT assay or lysed for western blotting.

The test system of another data set is CD1 mice. Put plainly: Acute toxicity testing (up and down procedure). The data set is classed as in vivo. The note with it: six CD1 mice, intravenous, 17.5 mg/kg to 1750 mg/kg, up to six days. Here is the method:
FIG. 10. No toxic effects in 6 mice treated with XYZ. Acute toxicity testing was performed in CD1 mice with different doses of XYZ up to six days after treatment. After one day of fasting, six mice were injected intravenously (28 G needle) through the tail vein with a total dose of 17.5, 175, 550 or 1750 mg/kg/mouse of XYZ in a physiological solution. 50 gr of food were available two hours later. The health status (coat and appearance) of mice was observed from the first day after treatment. (a) Mice were weighed prior to XYZ injection and then every day until the sixth day. The amount of ingested food (b) and drinking water (c) were measured.
Intravenous injections were performed in six CD1 mice (Charles River, Calco (MI) Italy) tails for administration from 17.5 mg/kg to 1750 mg/kg XYZ (FIG. 10).

Non-standard residues stand in square brackets, D forms with d. methoxy‑PEG 20 kDa = linear 20 kDa methoxy-PEG conjugated through D-Cys sulfur

With “Ac-DMet-DLeu-Gly-DIle-DIle-DAla-Gly-DLys-DAsn-DSer-Gly-DCys-NH2 with a linear 20 kDa methoxy-PEG polymer conjugated to the D-Cys residue through the sulfur atom of the latter (Ac-[dM][dL]G[dI][dI][dA]G[dK][dN][dS]G[dC](methoxy‑PEG 20 kDa)-NH2) [XYZ]”, the “cell death versus CD271 expression level (Trypan blue viable cell counting, flow cytometry)” value in data set [1] is “more efficacious in cell lines expressing higher levels of CD271”. In addition, in data set [2], the “rate of apoptosis (propidium iodide, subG1 analysis)” value is “significantly higher rate of apoptosis than diluent alone”. In addition, the “rate of apoptosis (Annexin staining)” value in data set [3] was “significantly higher rate of apoptosis than diluent alone”. In data set [4], the “cell viability (MTT assay) in CD271-silenced cells” value is on record as “fails to reduce cell viability”. Besides, the “acute toxic effect (appearance, weight, water and food intake)” value with CD1 mice is given as “did not show any acute toxic effect”.

The values are drawn from US20230137491A1, “PEPTIDES AND USES THEREOF” (SINTICA BIOTECH SOCIETÀ A RESPONSABILITÀ LIMITATA …, priority 2020, published 2023).
